Assays:
Botrytis cinerea = assay: Test E: test suspension sprayed on tomato seedlings, inoculated next day with Botrytis cinerea (tomato Botrytis); visual disease rating (100 = 100% disease control, 0 = no control; dash = not tested); format: in vivo; conditions: for pest or weed control at 50 ppm / Test E disease control rating: 50 ppm
Summary of the method: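 Spores were applied one day after spraying the seedlings to run-off. Incubation was 48 h saturated at 20° C, then 3 days in a 24° C growth chamber. Visual ratings, relative to untreated controls, run from 0 (no control) to 100 (complete control).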

Zymoseptoria tritici = assay: Test A: test solution sprayed on wheat seedlings, inoculated next day with Zymoseptoria tritici (wheat leaf blotch); disease rating (100 = 100% disease control, 0 = no control; dash = not tested); format: in vivo; conditions: for pest or weed control at 50 ppm / Test A disease control rating: 50 ppm
Summary of the method: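 Preventive spray test: compound applied to run-off one day before spore inoculation of wheat seedlings. Incubation was 48 h saturated humidity at 24° C followed by 17 days at 20° C. Disease then scored 0–100 as % control versus untreated plants.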

[1] = test system: Blumeria graminis f. sp. tritici; assay: Test C: test suspension sprayed on wheat seedlings, inoculated next day with Blumeria graminis f. sp. tritici (wheat powdery mildew); visual disease rating (100 = 100% disease control, 0 = no control; dash = not tested); format: in vivo; conditions: for pest or weed control at 50 ppm / Test C disease control rating: 50 ppm
Summary of the method: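 Visual ratings of disease control (0–100, relative to controls) were made 8 days after inoculation with B. graminis f. sp. tritici spore dust. Plants were held at 20 °C. Compound was applied as a spray to run-off one day before inoculation.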

Alternaria solani = assay: Test F: test suspension sprayed on tomato seedlings, inoculated next day with Alternaria solani (tomato early blight); visual disease rating (100 = 100% disease control, 0 = no control; dash = not tested); format: in vivo; conditions: for pest or weed control at 50 ppm / Test F disease control rating: 50 ppm
Summary of the method: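 Visual ratings of % disease control versus controls were made after inoculated plants spent 48 h at 27° C. in saturated air plus 3 days at 20° C. The compound suspension had been sprayed to run-off one day before spore inoculation.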

[2] = test system: Puccinia recondita f. sp. tritici; assay: Test B: test solution sprayed on wheat seedlings, inoculated next day with Puccinia recondita f. sp. tritici (wheat leaf rust); disease rating (100 = 100% disease control, 0 = no control; dash = not tested); format: in vivo; conditions: for pest or weed control at 50 ppm / Test B disease control rating: 50 ppm
Description: The resulting test suspensions were then used in Tests A-F. The test solution was sprayed to the point of run-off on wheat seedlings. […] A rating of 100 indicates 100% disease control and a rating of 0 indicates no disease control (relative to the controls). A dash (—) indicates the compound was not tested.

Phakopsora pachyrhizi = assay: Test D: test solution sprayed on soybean seedlings, inoculated next day with Phakopsora pachyrhizi (Asian soybean rust); visual disease rating (100 = 100% disease control, 0 = no control; dash = not tested); format: in vivo; conditions: for pest or weed control at 50 ppm / Test D disease control rating: 50 ppm
Summary of the method: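 Preventive spray test: soybean seedlings treated to run-off with ppm-level suspensions (acetone/water 50/50, 250 ppm PEG400), spore-inoculated one day later. Held 24 h at 22 °C in saturated air, then 8 days at 22 °C; disease control scored visually versus untreated plants, 0 = none, 100 = complete.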

| Compound | pest or weed control at 250 ppm (Botrytis cinerea) [%] | pest or weed control at 250 ppm (Zymoseptoria tritici) [%] | melting point [°C] | pest or weed control at 250 ppm [1] [%] | pest or weed control at 250 ppm (Alternaria solani) [%] | pest or weed control at 250 ppm [2] [%] | pest or weed control at 250 ppm (Phakopsora pachyrhizi) [%] | pest or weed control at 50 ppm (Botrytis cinerea) [%] | pest or weed control at 50 ppm (Zymoseptoria tritici) [%] | pest or weed control at 50 ppm [1] [%] | pest or weed control at 50 ppm (Alternaria solani) [%] | pest or weed control at 50 ppm [2] [%] | pest or weed control at 50 ppm (Phakopsora pachyrhizi) [%] | Test E disease control rating (Botrytis cinerea) [%] | Test A disease control rating (Zymoseptoria tritici) [%] | Test C disease control rating [1] [%] | Test F disease control rating (Alternaria solani) [%] | Test B disease control rating [2] [%] | Test D disease control rating (Phakopsora pachyrhizi) [%] |
| --- | --- | --- | --- | --- | --- | --- | --- | --- | --- | --- | --- | --- | --- | --- | --- | --- | --- | --- | --- |
| Cn1nc(-c2ccc(F)cc2Cl)c(-c2ccc(F)cc2Cl)c(C#N)c1=O [Compound 6, 5,6-bis(2-chloro-4-fluorophenyl)-2,3-dihydro-2-methyl-3-oxo-4-pyridazine-carbonitrile] | 99 | 100 | 137 to 140 | 92 | 99 | 100 | 0 | – | – | – | – | – | – | – | – | – | – | – | – |
| COc1cc(OC)c(Cl)c(-c2nn(C)c(=O)cc2-c2c(F)cccc2F)c1 [Compound 12, 6-(2-chloro-3,5-dimethoxyphenyl)-5-(2,6-difluorophenyl)-2-methyl-3(2H)-pyridazinone] | 99 | 100 | 172 to 176 | 100 | 0 | 100 | 100 | – | – | – | – | – | – | – | – | – | – | – | – |
| COc1cc(OC)c([N+](=O)[O-])c(-c2nn(C)c(=O)cc2-c2c(F)cccc2F)c1 [Compound 13, 5-(2,6-difluorophenyl)-6-(3,5-dimethoxy-2-nitrophenyl)-2-methyl-3(2H)-pyridazinone] | 99 | 94 | 174 to 178 | 81 | 9 | 99 | 63 | – | – | – | – | – | – | – | – | – | – | – | – |
| COc1cc(-c2nn(C)c(=O)cc2-c2c(F)cccc2F)cc(OC)c1Cl [Compound 14, 6-(4-chloro-3,5-dimethoxyphenyl)-5-(2,6-difluorophenyl)-2-methyl-3(2H)-pyridazinone] | 0 | 88 | 221 to 225 | 0 | 0 | 80 | 0 | – | – | – | – | – | – | – | – | – | – | – | – |
| COc1cc(OC)c(Cl)c(-c2nn(C)c(=O)cc2-c2ccc(F)cc2Cl)c1 [Compound 25, 6-(2-chloro-3,5-dimethoxyphenyl)-5-(2-chloro-4-fluorophenyl)-2-methyl-3(2H)-pyridazinone] | – | – | 121 to 125 | – | – | – | – | 100 | 100 | 98 | 85 | 100 | 94 | – | – | – | – | – | – |
| CCN1N=C(c2cc(OC)cc(OC)c2)C(c2c(F)cccc2F)CC1=O (centres unmarked) [Compound 33, 5-(2,6-difluorophenyl)-6-(3,5-dimethoxyphenyl)-4,5-dihydro-2-ethyl-3(2H)-pyridazinone] | 0 | 0 | 119 to 122 | 0 | 0 | 55 | 0 | – | – | – | – | – | – | – | – | – | – | – | – |
| COc1cc(OC)cc(-c2nn(C)c(=O)c(Br)c2-c2c(F)cccc2F)c1 [Compound 34, 4-bromo-5-(2,6-difluorophenyl)-6-(3,5-dimethoxyphenyl)-2-methyl-3(2H)-pyridazinone] | 99 | 100 | 153 to 157 | 95 | 99 | 89 | 99 | – | – | – | – | – | – | – | – | – | – | – | – |
| COc1cc(OC)c(Cl)c(-c2nn(C)c(=O)c(Cl)c2-c2c(F)cccc2F)c1 [Compound 35, 4-chloro-6-(2-chloro-3,5-dimethoxyphenyl)-5-(2,6-difluorophenyl)-2-methyl-3(2H)-pyridazinone] | 99 | 100 | 192 to 196 | 100 | 99 | 100 | 100 | – | – | – | – | – | – | – | – | – | – | – | – |
| COc1cc(OC)cc(-c2nn(C)c(=O)c(Cl)c2-c2c(F)cccc2F)c1 [Compound 36, 4-chloro-5-(2,6-difluorophenyl)-6-(3,5-dimethoxyphenyl)-2-methyl-3(2H)-pyridazinone] | 100 | 100 | 150 to 154 | 99 | 99 | 100 | 93 | – | – | – | – | – | – | – | – | – | – | – | – |
| COc1cc(OC)c([N+](=O)[O-])c(-c2nn(C)c(=O)c(Cl)c2-c2c(F)cccc2F)c1 [Compound 37, 4-chloro-5-(2,6-difluorophenyl)-6-(3,5-dimethoxy-2-nitrophenyl)-2-methyl-3(2H)-pyridazinone] | 99 | 99 | 223 to 227 | 98 | 99 | 100 | 100 | – | – | – | – | – | – | – | – | – | – | – | – |
| COc1cc(OC)cc(-c2nn(C)c(=O)cc2-c2c(F)cccc2F)c1 [Compound 38, 5-(2,6-difluorophenyl)-6-(3,5-dimethoxyphenyl)-2-methyl-3(2H)-pyridazinone] | 98 | 98 | 132 to 136 | 81 | 0 | 99 | 0 | – | – | – | – | – | – | – | – | – | – | – | – |
| COc1cc(OC)cc(C2=NN(C)C(=O)CC2c2c(F)cccc2F)c1 (centres unmarked) [Compound 39, 5-(2,6-difluorophenyl)-6-(3,5-dimethoxyphenyl)-4,5-dihydro-2-methyl-3(2H)-pyridazinone] | 99 | 98 | 139 to 142 | 69 | 0 | 86 | 0 | – | – | – | – | – | – | – | – | – | – | – | – |
| Cc1c(-c2ccc(F)cc2Cl)c(-c2ccc(F)cc2Cl)nn(C)c1=O [Compound 44, 5,6-bis(2-chloro-4-fluorophenyl)-2,4-dimethyl-3(2H)-pyridazinone] | – | – | 126 to 129 | – | – | – | – | 93 | 100 | 100 | 100 | 100 | 100 | – | – | – | – | – | – |
| COc1ccc(Cl)c(-c2nn(C)c(=O)c(Cl)c2-c2c(F)cccc2F)c1 [Compound 57, 4-chloro-6-(2-chloro-5-methoxyphenyl)-5-(2,6-difluorophenyl)-2-methyl-3(2H)-pyridazinone] | – | – | 134 to 137 | – | – | – | – | 99 | 100 | 99 | 100 | 100 | 99 | – | – | – | – | – | – |
| CCn1nc(-c2cc(OC)cc(OC)c2Cl)c(-c2ccc(F)cc2Cl)cc1=O [Compound 202] | – | – | – | – | – | – | – | – | – | – | – | – | – | 99 | 99 | 72 | 0 | 68 | 44 |
| COc1cc(-c2nn(C)c(=O)cc2-c2ccc(F)cc2Cl)cc(OC)c1Cl [Compound 203] | – | – | – | – | – | – | – | – | – | – | – | – | – | 31 | 0 | 0 | 0 | 0 | 0 |
| COc1cc(C#N)cc(-c2cc(=O)n(C)nc2-c2cc(C#N)cc(OC)c2)c1 [Compound 204] | – | – | – | – | – | – | – | – | – | – | – | – | – | 0 | 2 | 0 | 0 | 0 | 39 |
| COc1cc(F)c(Cl)c(-c2nn(C)c(=O)cc2-c2c(F)cccc2F)c1 [Compound 205] | – | – | – | – | – | – | – | – | – | – | – | – | – | 99 | 100 | 98 | 99 | 99 | 71 |
| COc1cc(F)cc(-c2nn(C)c(=O)cc2-c2c(F)cccc2F)c1Cl [Compound 206] | – | – | – | – | – | – | – | – | – | – | – | – | – | 100 | 97 | 93 | 76 | 100 | 65 |
| COc1ccc(Cl)c(C2=NN(C)C(=O)CC2c2c(F)cccc2F)c1 (centres unmarked) [Compound 207] | – | – | – | – | – | – | – | – | – | – | – | – | – | 100 | 79 | 90 | 0 | 68 | 0 |
| COc1ccc(Cl)c(C2=NN(C)C(=O)C(C)C2c2c(F)cccc2F)c1 (centres unmarked) [Compound 208] | – | – | – | – | – | – | – | – | – | – | – | – | – | 100 | 96 | 99 | 100 | 100 | 0 |
